This is an account of results in patent US8492559B2, “Substituted indole compounds” (Gruenenthal GmbH, priority 2009, dated 2013).

SMILES strings stand for the structures.

This experiment has as its target T1, B1R receptor of the rat (rB1R) (Rattus norvegicus, UniProt P97583).
T1 construct: expressed in transfected cells; host or cells: CHO K1 cells
T1 sequence (P97583 1-337): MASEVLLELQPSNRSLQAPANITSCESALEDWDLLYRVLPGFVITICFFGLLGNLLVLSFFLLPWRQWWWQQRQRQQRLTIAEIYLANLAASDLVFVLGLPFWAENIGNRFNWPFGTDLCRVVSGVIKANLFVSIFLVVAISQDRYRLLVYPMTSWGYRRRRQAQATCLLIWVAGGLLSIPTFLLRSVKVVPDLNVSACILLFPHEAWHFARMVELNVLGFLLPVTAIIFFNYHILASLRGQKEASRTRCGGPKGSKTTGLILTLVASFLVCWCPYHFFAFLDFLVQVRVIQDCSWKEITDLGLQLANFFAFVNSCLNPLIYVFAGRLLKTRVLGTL
Put plainly: Functional investigation on the bradykinin 1 receptor (B1R), FLIPR Ca2+ assay, rB1R cells. Conditions: CHO-K1, 10 μM test substance; CHO K1 cells with rat B1R; agonist Des-Arg9 bradykinin; % of maximum achievable inhibition; read-out: B1R antagonism, rat [10 μM] % inhibition. It counts as cell-based. As to the method:
The indication in % activation is based on the Ca^2+ signal after addition of Lys-Des-[…] bradykinin (0.5 nM) or Des-[…] bradykinin (100 nM). Antagonists lead to a suppression of the Ca^2+ influx following administration of the agonist. The % inhibition in comparison with the maximum achievable inhibition is indicated. […] According to this assay, the Ca^2+ inflow through the channel is quantified with the aid of a Ca^2+-sensitive dye (Fluo-4 type, Molecular Probes Europe BV, Leiden, Netherlands) in a fluorescent imaging plate reader (FLIPR, Molecular Devices, Sunnyvale, USA). […] For functional investigations these cells are plated-out onto black 96-well plates with a clear base (BD Biosciences, Heidelberg, Germany or Greiner, Frickenhausen, Germany) in a density of 20,000-35,000 cells/well. Overnight the cells are incubated at 37° C. and 5% CO2 in culture medium (hB1R cells: Ham's Nutrient Mixture F12, Gibco Invitrogen GmbH, Karlsruhe, Germany or DMEM, Sigma-Aldrich, Taufkirchen, Germany; rB1R cells: D-MEM/F12, Gibco Invitrogen, Karlsruhe, Germany) with 10 vol. % FBS (foetal bovine serum, Gibco Invitrogen GmbH, Karlsruhe, Germany or PAN Biotech GmbH, Aidenbach, Germany). On the following day the cells are loaded with 2.13 μM Fluo-4 (Molecular Probes Europe BV, Leiden, Netherlands) in HBSS buffer (Hank's buffered saline solution, Gibco Invitrogen GmbH, Karlsruhe, Germany) with 2.5 mM probenecid (Sigma-Aldrich, Taufkirchen, Germany) and 10 mM HEPES (Sigma-Aldrich, Taufkirchen, Germany) for 60 min at 37° C. […] Sigma-Aldrich, Taufkirchen, Germany), 5.6 mM glucose and 0.05% gelatine (Merck KGaA, Darmstadt, Germany) is added. After a further incubation of 20 minutes at room temperature, the plates are inserted into the FLIPR for Ca^2+ measurement. Alternatively they are washed with buffer A (15 mM HEPES, 80 mM NaCl, 5 mM KCl, 1.2 mM CaCl2, 0.7 mM MgSO4, 2 g/l glucose, 2.5 mM probenecid) and loaded with buffer A with added 2.5 μM Fluo-4 and 0.025% Pluronic F127 (Sigma-Aldrich, Taufkirchen, Germany). The cells are then washed twice with buffer A and incubated for 30 minutes with buffer A, which additionally contains 0.05% BSA and 0.05% gelatine, at room temperature and then used for Ca^2+ measurement in the FLIPR. The Ca^2+-dependent fluorescence is measured here before and after addition of substances (λex=488 nm, λem=540 nm). The quantification is performed by measuring the highest fluorescence intensity (FC, fluorescence counts) over time. The FLIPR protocol comprises two additions of substance. […] Lys-Des-[…] bradykinin>=50 nM; rB1R: […] Antagonists lead to a suppression of the Ca^2+ inflow. The % inhibition in comparison with the maximum achievable inhibition is calculated. The substances are added in varying concentrations in order to determine the IC50 value. Double or triple determinations (n=2 or n=3) are performed and these are repeated in at least one further independent experiment (N>=2).

A word on the inhibition: it is the change of the read-out against control, counted positive when it falls. Consider `COc1cc(C)c(S(=O)(=O)Nc2cccc3ccn(CC(=O)N(C)CCC4CCC(c5ccccc5)(N(C)C)CC4)c23)c(C)c1` (centres unmarked) [G_CC-77, N-[2-(4-Dimethylamino-4-phenyl-cyclohexyl)-ethyl]-2-[7-[[(4-methoxy-2,6-dimethyl-phenyl)sulfonyl]amino]-1H-indol-1-yl]-N-methyl-acetamide], for which the inhibition at 10 µM worked out at 104%. In the case of `COc1cc(C)c(S(=O)(=O)Nc2ccc3ccn(CC(=O)N4CCN(C5CCN(C)CC5)CC4)c3c2)c(C)c1` [G_CC-1, 4-Methoxy-2,6-dimethyl-N-[1-[2-[4-(1-methyl-piperidin-4-yl)-piperazin-1-yl]-2-oxo-ethyl]-1H-indol-6-yl]-benzenesulfonic acid amide] it was 62%; in that of `COc1cc(C)c(S(=O)(=O)Nc2cccc3ccn(CCC(=O)NCCN4CCC(c5cccs5)(N(C)C)CC4)c23)c(C)c1` [G_CC-51, N-[2-(4-Dimethylamino-4-thiophen-2-yl-piperidin-1-yl)-ethyl]-3-[7-[[(4-methoxy-2,6-dimethyl-phenyl)sulfonyl]amino]-1H-indol-1-yl]-propionamide], 93%; in that of `Cc1cc(S(=O)(=O)Nc2ccc3ccn(CC(=O)N4CCC5(CC4)CCN(c4ccncc4)CC5)c3c2)c(C)cc1Cl` [G_CC-36, 4-Chloro-2,5-dimethyl-N-[1-[2-oxo-2-(3-pyridin-4-yl-3,9-diazaspiro[5.5]undecan-9-yl)-ethyl]-1H-indol-6-yl]-benzenesulfonic acid amide], 63%. The same measure for `O=C(Cn1ccc2ccc(N3Cc4cccc(Cl)c4C3=O)cc21)NCCC1CCN(c2ccncc2)CC1` [G_CC-103, 2-[6-(4-Chloro-3-oxo-1,2-dihydro-isoindol-2-yl)-1H-indol-1-yl]-N-[2-(1-pyridin-4-yl-piperidin-4-yl)-ethyl]-acetamide]: 88%; for `COc1cc(C)c(S(=O)(=O)Nc2cccc3ccn(CC(=O)N4CCC5(CC4)C(=O)N(C)CC5c4ccc(F)cc4)c23)c(C)c1` (centres unmarked) [G_CC-31, N-[1-[2-[1-(4-Fluorophenyl)-3-methyl-4-oxo-3,8-diazaspiro[4.5]decan-8-yl]-2-oxo-ethyl]-1H-indol-7-yl]-4-methoxy-2,6-dimethyl-benzenesulfonic acid amide]: 91%; for `O=C(CCn1ccc2ccc(N3Cc4cccc(Cl)c4C3=O)cc21)N1CCC(O)(c2cccnc2)CC1` [G_CC-69, 7-Chloro-2-[1-[3-(4-hydroxy-4-pyridin-3-yl-piperidin-1-yl)-3-oxo-propyl]-1H-indol-6-yl]-2,3-dihydro-isoindol-1-one]: 65%. In the case of `COc1cc(C)c(S(=O)(=O)Nc2cccc3ccn(CCC(=O)N(C)CCCN4CCC(c5cccs5)(N(C)C)CC4)c23)c(C)c1` [G_CC-46, N-[3-(4-Dimethylamino-4-thiophen-2-yl-piperidin-1-yl)-propyl]-3-[7-[[(4-methoxy-2,6-dimethyl-phenyl)sulfonyl]amino]-1H-indol-1-yl]-N-methyl-propionamide] it was 94%; in that of `CN(CCCN1CCC(c2cccs2)(N(C)C)CC1)C(=O)Cn1ccc2cccc(NS(=O)(=O)c3cccc4ccccc34)c21` [G_CC-25, N-[3-(4-Dimethylamino-4-thiophen-2-yl-piperidin-1-yl)-propyl]-N-methyl-2-[7-[(naphthalen-1-ylsulfonyl)amino]-1H-indol-1-yl]-acetamide], 58%. Consider `O=C(Cn1ccc2ccc(NS(=O)(=O)c3ccccc3C(F)(F)F)cc21)N1CCC2(CC1)CCN(c1ccncc1)CC2` [G_CC-37, N-[1-[2-Oxo-2-(3-pyridin-4-yl-3,9-diazaspiro[5.5]undecan-9-yl)-ethyl]-1H-indol-6-yl]-2-(trifluoromethyl)-benzenesulfonic acid amide], for which the inhibition at 10 µM turned out to be 91%. Take `COc1cc(C)c(S(=O)(=O)Nc2cccc3ccn(CC(=O)N4CCC5(CC4)CCN(c4ccc(F)cc4)C5=O)c23)c(C)c1` [G_CC-12, N-[1-[2-[3-(4-Fluorophenyl)-4-oxo-3,8-diazaspiro[4.5]decan-8-yl]-2-oxo-ethyl]-1H-indol-7-yl]-4-methoxy-2,6-dimethyl-benzenesulfonic acid amide]: the inhibition at 10 µM was 58%. The same measure for `COc1cc(C)c(S(=O)(=O)Nc2cccc3ccn(CCC(=O)N4CCC(c5ccccc5)(N(C)C)CC4)c23)c(C)c1` [G_CC-48, N-[1-[3-(4-Dimethylamino-4-phenyl-piperidin-1-yl)-3-oxo-propyl]-1H-indol-7-yl]-4-methoxy-2,6-dimethyl-benzenesulfonic acid amide]: 59%. In the case of `O=C(CCn1ccc2cccc(N3Cc4cccc(Cl)c4C3=O)c21)N1CCC2(CC1)CCN(c1ccncc1)CC2` [G_CC-106, 7-Chloro-2-[1-[3-oxo-3-(3-pyridin-4-yl-3,9-diazaspiro[5.5]undecan-9-yl)-propyl]-1H-indol-7-yl]-2,3-dihydro-isoindol-1-one] it was 86%.

As for `O=C(CCn1ccc2ccc(N3Cc4cccc(Cl)c4C3=O)cc21)N1CCC2(CC1)CCN(Cc1ccc(F)cc1)C2=O` [G_CC-66, 8-[3-[6-(4-Chloro-3-oxo-1,2-dihydro-isoindol-2-yl)-1H-indol-1-yl]-propanoyl]-3-[(4-fluorophenyl)-methyl]-3,8-diazaspiro[4.5]decan-4-one], the inhibition at 10 µM was 52%. As to `COc1cc(C)c(S(=O)(=O)Nc2ccc3ccn(CC(=O)N4CCN(c5ncccn5)CC4)c3c2)c(C)c1` [G_CC-3, 4-Methoxy-2,6-dimethyl-N-[1-[2-oxo-2-(4-pyrimidin-2-yl-piperazin-1-yl)-ethyl]-1H-indol-6-yl]-benzenesulfonic acid amide], the inhibition at 10 µM worked out at 82%. As for `Cc1cc(S(=O)(=O)Nc2cccc3ccn(CCC(=O)N4CCN(C5CCN(C)CC5)CC4)c23)c(C)cc1Cl` [G_CC-59, 4-Chloro-2,5-dimethyl-N-[1-[3-[4-(1-methyl-piperidin-4-yl)-piperazin-1-yl]-3-oxo-propyl]-1H-indol-7-yl]-benzenesulfonic acid amide], the inhibition at 10 µM turned out to be 87%. In the case of `COc1cc(C)c(S(=O)(=O)Nc2cccc3ccn(CC(=O)N4CCC5(CCN(Cc6ccccc6)C5)C4)c23)c(C)c1` (centres unmarked) [G_CC-13, N-[1-[2-(3-Benzyl-3,7-diazaspiro[4.4]nonan-7-yl)-2-oxo-ethyl]-1H-indol-7-yl]-4-methoxy-2,6-dimethyl-benzenesulfonic acid amide] it was 58%; in that of `COc1cc(C)c(S(=O)(=O)Nc2ccc3ccn(CCC(=O)NCCN4CCC(c5cccs5)(N(C)C)CC4)c3c2)c(C)c1` [G_CC-22, N-[2-(4-Dimethylamino-4-thiophen-2-yl-piperidin-1-yl)-ethyl]-3-[6-[[(4-methoxy-2,6-dimethyl-phenyl)sulfonyl]amino]-1H-indol-1-yl]-propionamide], 59%.

For the compound `COc1cc(C)c(S(=O)(=O)Nc2ccc3ccn(CCC(=O)NCCC4CCN(c5ccncc5)CC4)c3c2)c(C)c1` [G_CC-23, 3-[6-[[(4-Methoxy-2,6-dimethyl-phenyl)sulfonyl]amino]-1H-indol-1-yl]-N-[2-(1-pyridin-4-yl-piperidin-4-yl)-ethyl]-propionamide], the inhibition at 10 µM stood at 63%. In the case of `COc1cc(C)c(S(=O)(=O)Nc2cccc3ccn(CC(=O)N(C)CCCN4CCC(c5cccs5)(N(C)C)CC4)c23)c(C)c1` [G_CC-18, N-[3-(4-Dimethylamino-4-thiophen-2-yl-piperidin-1-yl)-propyl]-2-[7-[[(4-methoxy-2,6-dimethyl-phenyl)sulfonyl]amino]-1H-indol-1-yl]-N-methyl-acetamide] it was 87%.
